Results taken from patent publication US9499486B2, “Kinase inhibitor” (RESPIVERT LIMITED, priority 2014, dated 2016).
≈ marks a conversion by molar mass, not a printed value.

What was measured:
LPS-stimulated rats = assay: Endotoxin-induced uveitis in rats; type: in vivo, rat; conditions: mean ± SEM; for IL-1β Anterior tissue / IL-1β Posterior tissue: LPS-stimulated rats; for Cell counts: aqueous humor
Experimental: Male, Lewis rats (6-8 weeks old, Charles River UK Limited) are housed in cages of 3 at 19-21° C. with a 12 h light/dark cycle (07:00/19:00) and fed a standard diet of rodent chow and water ad libitum. Non-fasted rats are weighed, individually identified on the tail with a permanent marker, and receive a single intravitreal administration into the right vitreous humor (5 μL dose volume) of 100 ng/animal of LPS (Escherichia coli 0111:B4 prepared in PBS, Sigma Aldrich, UK) using a 32-gauge needle. Untreated rats are injected with PBS. Test compound or vehicle (4% polyoxyl 40 stearate, 4% mannitol in PBS (pH 7.4)) are administered by the topical route onto the right eye (10 μL) of animals 1 hour prior to LPS, at the time of LPS administration, and 1, 2 and 4 hours post LPS administration. Before administration, the solution to be administered is sonicated to ensure a clear solution. 6 hours after LPS dosing, animals are euthanized by overdose with pentobarbitone (via cardiac puncture). Immediately after euthanasia, 10 μL of aqueous humor is collected from the right eye of the rats by puncture of the anterior chamber using a 32 gauge needle under a surgical microscope. The aqueous humor is diluted in 20 μL of PBS and total cell counts are measured immediately using a Countess automated cell counter (Invitrogen). Following collection of the aqueous humour, the right eye of each animal is enucleated and dissected into front (anterior) and back (posterior) sections around the lens. Each section is weighed and homogenised in 500 μL of sterile phosphate buffered saline followed by 20 minutes centrifugation at 12000 rpm at 4° C. The resulting supernatant is divided into 3 aliquots and stored at −80° C. until subsequent cytokine analysis by R&D DuoSet ELISA.

Syk = Syk (Homo sapiens (Human), UniProt P43405); assay: Syk enzyme inhibition, Z-LYTE FRET; type: biochemical
Experimental: The enzyme inhibitory activities of the compound disclosed herein are determined by FRET using synthetic peptides labelled with both donor and acceptor fluorophores (Z-LYTE, Invitrogen Ltd., Paisley, UK).
The inhibitory activities of the compound of the invention against c-Src and Syk enzymes (Invitrogen), are evaluated in a similar fashion to that described hereinabove. The relevant enzyme (3000 ng/mL or 2000 ng/mL respectively, 2.5 μL) is incubated with the test compound (either 1 μg/mL, 0.1 μg/mL, 0.01 μg/mL, or 0.001 μg/mL, 2.5 μL each) for 2 hr at RT. The FRET peptides (8 μM, 2.5 μL), and appropriate ATP solutions (2.5 μL, 800 μM for c-Src, and 60 μM ATP for Syk) are then added to the enzymes/compound mixtures and the mixture incubated for 1 hr. Development reagent (protease, 5 μL) is added for 1 hr prior to detection in a fluorescence microplate reader (Varioskan® Flash, ThermoFisher Scientific).
In all cases, the site-specific protease cleaves non-phosphorylated peptide only and eliminates the FRET signal. Phosphorylation levels of each reaction are calculated using the ratio of coumarin emission (donor) over fluorescein emission (acceptor), for which high ratios indicate high phosphorylation and low ratios indicate low phosphorylation levels.

B-Raf (V600E) = B-Raf (V600E) (Homo sapiens (Human), UniProt P15056, V600E); assay: KINOMEscan binding of B-Raf (V600E) to standard ligand
Sequence of B-Raf (V600E) (P15056 whole entry V600E): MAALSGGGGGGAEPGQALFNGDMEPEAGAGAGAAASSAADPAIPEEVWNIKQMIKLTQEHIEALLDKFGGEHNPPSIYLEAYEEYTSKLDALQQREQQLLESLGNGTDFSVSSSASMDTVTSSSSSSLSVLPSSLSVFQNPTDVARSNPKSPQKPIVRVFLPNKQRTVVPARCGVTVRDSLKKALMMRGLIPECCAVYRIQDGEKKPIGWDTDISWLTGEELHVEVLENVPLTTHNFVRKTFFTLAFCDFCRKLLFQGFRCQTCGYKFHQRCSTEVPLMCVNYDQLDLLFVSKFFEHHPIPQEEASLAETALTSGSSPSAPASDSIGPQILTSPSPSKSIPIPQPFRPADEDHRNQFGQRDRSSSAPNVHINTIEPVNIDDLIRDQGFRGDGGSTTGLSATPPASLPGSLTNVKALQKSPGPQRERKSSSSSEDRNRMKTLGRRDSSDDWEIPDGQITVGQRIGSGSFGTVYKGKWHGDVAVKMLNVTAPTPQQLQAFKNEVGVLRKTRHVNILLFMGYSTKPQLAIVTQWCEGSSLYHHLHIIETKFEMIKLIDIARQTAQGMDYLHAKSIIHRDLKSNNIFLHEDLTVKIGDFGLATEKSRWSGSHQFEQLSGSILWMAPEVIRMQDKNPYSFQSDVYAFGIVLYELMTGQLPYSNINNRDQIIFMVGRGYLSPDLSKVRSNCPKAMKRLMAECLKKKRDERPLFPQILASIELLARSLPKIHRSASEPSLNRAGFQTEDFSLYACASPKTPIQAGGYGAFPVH
Excerpt: These assays may be conducted by DiscoverX (formerly Ambit; San Diego, Calif.).

[1] = Solubility in fasted-state simulated colonic fluid (FaSSCoF); type: physicochemical
Experimental: The solubility of the compound of the invention in FaSSCoF at pH 6.5 is determined using a modification of a previously-reported procedure (Vertzoni, M., et al. Pharm. Res. 2010, 27, 2187-2196). In place of the bile salt extract employed in the original procedure (which extract is no longer available), the modified procedure uses a mixture of sodium taurochlorate (0.15 g), glycocholic acid (0.15 g), ursodeoxycholic acid (0.05 g), cholic acid (0.05 g), and glycodeoxycholic acid (0.05 g). These five bile acids are ground together with a mortar and pestle to produce a fine white powder that is incorporated into the FaSSCoF, as outlined below.
FaSSCoF medium: Tris(hydroxymethyl)aminomethane (Tris; 0.275 g) and maleic acid (0.44 g) are dissolved in water (35 mL) to give a solution whose pH is adjusted to 6.5 by treatment with 0.5M NaOH (ca. 12 mL). The solution is then made up to 50 mL with water. A portion of this Tris/maleate buffer solution (ca. 25 mL) is added to a 0.5 L round-bottomed flask, before being treated with 0.00565 g of the bile acid mixture described above. Solutions of phosphatidylcholine (0.0111 g) in DCM (0.15 mL) and palmitic acid (0.0013 g) in DCM (0.15 mL) are added, then the organic solvent is evaporated off under reduced pressure at 40° C. until a clear solution, with no perceptible DCM odour, is achieved. The volume of the evaporated solution is adjusted to 50 mL by addition of the remainder of Tris/maleate buffer, then BSA (0.115 g) is added, before being dissolved by gentle agitation.
Solubility Determination: Test compounds are suspended in the pH 6.5 FaSSCoF medium to give a maximum final concentration of 2-10 mg/mL. The suspensions are equilibrated at 25° C. for 24 h, before being filtered through a glass fibre C filter. The filtrates are then diluted as appropriate for injection and quantification by HPLC with reference to a standard. Different volumes of the standard, diluted and undiluted sample solutions are injected and the solubilities are calculated using the peak areas determined by integration of the peak found at the same retention time as the principal peak in the standard injection.

Structure (SMILES): COc1cc(Nc2cc(Oc3ccc(NC(=O)Nc4cc(C(C)(C)C)cc(NS(C)(=O)=O)c4OC)c4ccccc34)ccn2)ccc1C(=O)O [Example 1, 4-((4-((4-(3-(5-(tert-Butyl)-2-methoxy-3-(methylsulfonamido)phenyl)ureido)naphthalen-1-yl)oxy)pyridin-2-yl)amino)-2-methoxybenzoic acid]
- IL-1β Anterior tissue (LPS-stimulated rats; 0.001 mg/mL topical): 1558.1 ± 145.7 pg/mL
- IL-1β Posterior tissue (LPS-stimulated rats; 0.001 mg/mL topical): 867.9 ± 120.8 pg/mL
- Cell counts (LPS-stimulated rats; 0.001 mg/mL topical): 63.6 ± 7.0 ×10^5/mL
- IL-1β Anterior tissue (LPS-stimulated rats; 0.01 mg/mL topical): 980.0 ± 110.8 pg/mL
- IL-1β Posterior tissue (LPS-stimulated rats; 0.01 mg/mL topical): 740.5 ± 56.2 pg/mL
- Cell counts (LPS-stimulated rats; 0.01 mg/mL topical): 43.5 ± 6.3 ×10^5/mL
- IL-1β Anterior tissue (LPS-stimulated rats; 0.1 mg/mL topical): 791.2 ± 131.9 pg/mL
- IL-1β Posterior tissue (LPS-stimulated rats; 0.1 mg/mL topical): 327.4 ± 61.4 pg/mL
- Cell counts (LPS-stimulated rats; 0.1 mg/mL topical): 30.4 ± 6.7 ×10^5/mL
- IL-1β Anterior tissue (LPS-stimulated rats; 1 mg/mL topical): 367.3 ± 100.4 pg/mL
- IL-1β Posterior tissue (LPS-stimulated rats; 1 mg/mL topical): 188.1 ± 54.7 pg/mL
- Cell counts (LPS-stimulated rats; 1 mg/mL topical): 21.9 ± 5.0 ×10^5/mL
- IC50 (Syk): 5 nM
- effect on the binding of B-Raf (V600E) to its standard ligand (B-Raf (V600E)): did not have any significant effect
- solubility at 24 h ([1]; fasted-state simulated colonic fluid (FaSSCoF), 25 °C, fassgf or other biorelevant, thermodynamic from solid, pH 6.5, text summary, read-out: solubilities in the FaSSCoF medium at pH 6.5): > 10 µg/mL
- solubility thermodynamic at 24 h ([1]; fasted-state simulated colonic fluid (FaSSCoF), 25 °C, pH 6.5, fassgf or other biorelevant, thermodynamic from solid, pH 6.5, 25° C., 24 h, read-out: pH 6.5 FaSSCoF Solubility Run 3): 10 µg/mL (≈ 14.3 µM)
- pH 6.5 FaSSCoF Solubility Run 1 ([1]; pH 6.5, 25° C., 24 h): 0.016 mg/mL
- pH 6.5 FaSSCoF Solubility Run 2 ([1]; pH 6.5, 25° C., 24 h): 0.018 mg/mL
- pH 6.5 FaSSCoF Solubility Run 4 ([1]; pH 6.5, 25° C., 24 h): 0.011 mg/mL
